The source of these data is paper PMC2663033 (2009).

Each structure is given as a SMILES string.

For experiment [1], the system named is aptamer II (DNA, G4) AGTCCGTGGTTGGTGTGGTTGGGGTGACT
The experiment can be described thus: peroxidase activity (ABTS-H2O2). As to conditions: 20 mM K+, 200 mM Na+; 25 mM HEPES pH 8.0, 0.05% Triton X-100, 1% DMSO; 1 µM hemin plus 1 µM aptamer.

In experiment [2] the test system is aptamer 4 (DNA, G4) AGGGACGGGAAGAA/AAAATGTGGAGGGT
Description: UV-Vis, hyperchromicity of hemin Soret band. As to conditions: 20 mM K+, 200 mM Na+; 25 mM HEPES pH 7.4, 0.05% Triton X-100, 1% DMSO; 1 µM complex.

The test system of experiment [3] is aptamer III (DNA, G4) AGGGACGGGAAGAAAAGGAAAATCCTTAAAATGTGGAGGGT
Description: UV-Vis, hyperchromicity of hemin Soret band. The following applies: 20 mM K+, 200 mM Na+; 25 mM HEPES pH 7.4, 0.05% Triton X-100, 1% DMSO; 1 µM complex; about 2 x affinity of aptamer 4.

Experiment [4] deals with aptamer 1 (DNA, G4) GGGTAGGGCGGGTTGGG
The experiment can be described thus: peroxidase activity titration (ABTS-H2O2, A421). As to conditions: 20 mM K+, 200 mM Na+; 5.45 mM ABTS, 25 mM HEPES pH 8.0, 0.05% Triton X-100, 1% DMSO, 0.1 µM hemin.

Experiment [5] deals with aptamer I (DNA, G4) AGTCCGTGGGTAGGGCGGGTTGGGGGTGACT
Description: peroxidase activity titration (ABTS-H2O2, A421). The following applies: 20 mM K+, 200 mM Na+; 5.45 mM ABTS, 25 mM HEPES pH 8.0, 0.05% Triton X-100, 1% DMSO, 0.1 µM hemin.

By Kd is commonly meant a measure of binding affinity in units of concentration. Read a high Kd as weaker binding. With `C=CC1=C(C)C2=Cc3c(C=C)c(C)c4[n]3[Fe]([Cl])[n]3c(c(C)c(CCC(=O)O)c3=CC3=NC(=C4)C(C)=C3CCC(=O)O)=CC1=N2`, the binding result in experiment [1], in experiment [2] and in experiment [3] was “yes” in each case. In addition, the results for the Kd in experiment [4] and in experiment [5] were 258 ± 7 nM and 194 ± 10 nM, respectively.
